Source: patent US9686986B2, “Herbicidal compounds” (SYNGENTA LIMITED, priority 2011, dated 2017)

Key:
Assay in all cases: Glasshouse herbicide test, pre- and post-emergence, percentage damage
Assay type in all cases: in vivo
[1] = system: Stellaria media (STEME); details: 1000 g/h, evaluated after 13 days, five point scale; for percentage damage caused to the plant, STEME, POST Application: post-emergence; for percentage damage caused to the plant, STEME, PRE Application: pre-emergence
Procedure: (§1) Seeds of a variety of test species are sown in standard soil in pots (Alopecurus myosuroides (ALOMY), Setaria faberi (SETFA), Stellaria media (STEME), Echinochloa crus-galli (ECHCG), Solanum nigrum (SOLNI), Amaranthus retoflexus (AMARE), Ipomoea hederacea (IPOHE), Lolium perenne (LOLPE). After cultivation for one day (pre-emergence) or after 8 days cultivation (post-emergence) under controlled conditions in a glasshouse (at 24/16° C., day/night; 14 hours light; 65% humidity), the plants are sprayed with an aqueous spray solution derived from the formulation of the technical active ingredient in acetone/water (50:50) solution containing 0.5% Tween 20 (polyoxyethelyene sorbitan monolaurate, CAS RN 9005-64-5). Compounds ae applied at 1000 g/h. The test plants are then grown in a glasshouse under controlled conditions in a glasshouse (at 24/16° C., day/night; 14 hours light; 65% humidity) and watered twice daily. After 13 days for pre and post-emergence, the test is evaluated for the percentage damage caused to the plant. The biological activities are shown in the following table on a five point scale (5=80-100%; 4=60-79%; 3=40-59%; 2=20-39%; 1=0-19%).

[2] = system: Lolium perenne (LOLPE); details: 1000 g/h, evaluated after 13 days, five point scale; for percentage damage caused to the plant, LOLPE, POST Application: post-emergence; for percentage damage caused to the plant, LOLPE, PRE Application: pre-emergence
Procedure: as §1

[3] = system: DIGSA; details: 1000 g/h, evaluated after 13 days, five point scale; for percentage damage caused to the plant, DIGSA, POST Application: post-emergence; for percentage damage caused to the plant, DIGSA, PRE Application: pre-emergence
Procedure: [The source words this procedure for another organism and reports this organism under the same test.] as §1

[4] = system: Amaranthus retoflexus (AMARE); details: 1000 g/h, evaluated after 13 days; for percentage damage caused to the plant, AMARE, POST Application: post-emergence; for percentage damage caused to the plant, AMARE, PRE Application: pre-emergence
Procedure: as §1

[5] = system: Alopecurus myosuroides (ALOMY); details: 1000 g/h, evaluated after 13 days, five point scale; for percentage damage caused to the plant, ALOMY, POST Application: post-emergence; for percentage damage caused to the plant, ALOMY, PRE Application: pre-emergence
Procedure: as §1

[6] = system: Ipomoea hederacea (IPOHE); details: 1000 g/h, evaluated after 13 days, five point scale; for percentage damage caused to the plant, IPOHE, POST Application: post-emergence; for percentage damage caused to the plant, IPOHE, PRE Application: pre-emergence
Procedure: as §1

[7] = system: Setaria faberi (SETFA); details: 1000 g/h, evaluated after 13 days, five point scale; for percentage damage caused to the plant, SETFA, POST Application: post-emergence; for percentage damage caused to the plant, SETFA, PRE Application: pre-emergence
Procedure: as §1

[8] = system: Echinochloa crus-galli (ECHCG); details: 1000 g/h, evaluated after 13 days, five point scale; for percentage damage caused to the plant, ECHCG, POST Application: post-emergence; for percentage damage caused to the plant, ECHCG, PRE Application: pre-emergence
Procedure: as §1

[9] = system: Solanum nigrum (SOLNI); details: 1000 g/h, evaluated after 13 days, five point scale; for percentage damage caused to the plant, SOLNI, POST Application: post-emergence; for percentage damage caused to the plant, SOLNI, PRE Application: pre-emergence
Procedure: as §1

Compound	percentage damage caused to the plant, STEME, POST Application [1]	percentage damage caused to the plant, STEME, PRE Application [1]	percentage damage caused to the plant, LOLPE, POST Application [2]	percentage damage caused to the plant, LOLPE, PRE Application [2]	percentage damage caused to the plant, DIGSA, POST Application [3]	percentage damage caused to the plant, DIGSA, PRE Application [3]	percentage damage caused to the plant, AMARE, POST Application ([4]; five point scale (Table B2))	percentage damage caused to the plant, AMARE, PRE Application ([4]; five point scale (Table B2))	percentage damage caused to the plant, ALOMY, POST Application [5]	percentage damage caused to the plant, ALOMY, PRE Application [5]	percentage damage caused to the plant, IPOHE, POST Application [6]	percentage damage caused to the plant, IPOHE, PRE Application [6]	percentage damage caused to the plant, SETFA, POST Application [7]	percentage damage caused to the plant, SETFA, PRE Application [7]	percentage damage caused to the plant, ECHCG, POST Application [8]	percentage damage caused to the plant, ECHCG, PRE Application [8]	percentage damage caused to the plant, AMARE, POST Application ([4]; five point scale (Table B1))	percentage damage caused to the plant, AMARE, PRE Application ([4]; five point scale (Table B1))	percentage damage caused to the plant, SOLNI, POST Application [9]	percentage damage caused to the plant, SOLNI, PRE Application [9]
CS(=O)(=O)c1ccc(C(=O)Nc2nnn[nH]2)c(Cl)c1COCC(F)(F)F [Compound 1.002]	2 (2=20-39%)	1 (1=0-19%)	1 (1=0-19%)	1 (1=0-19%)	1 (1=0-19%)	1 (1=0-19%)	5 (5=80-100%)	5 (5=80-100%)												
Cc1nc(C(C)F)ccc1C(=O)Nc1nnnn1C (stereo not shown) [Compound 1.006]	5 (5=80-100%)	4 (4=60-79%)	5 (5=80-100%)	4 (4=60-79%)	5 (5=80-100%)	4 (4=60-79%)	5 (5=80-100%)	5 (5=80-100%)												
COCc1nc(C(C)F)ccc1C(=O)Nc1nnnn1C (stereo not shown) [Compound 1.007]	5 (5=80-100%)	4 (4=60-79%)	2 (2=20-39%)	1 (1=0-19%)	5 (5=80-100%)	3 (3=40-59%)	5 (5=80-100%)	5 (5=80-100%)												
Cc1ccc([N+](=O)[O-])c(C(=O)Nc2nnnn2C)c1 [Compound 1.013]									2 (2=20-39%)	2 (2=20-39%)	5 (5=80-100%)	4 (4=60-79%)	1 (1=0-19%)	2 (2=20-39%)	1 (1=0-19%)	1 (1=0-19%)	4 (4=60-79%)	5 (5=80-100%)	5 (5=80-100%)	5 (5=80-100%)
Cc1ccc(C(F)(F)F)c(C(=O)Nc2nnnn2C)c1 [Compound 1.014]									3 (3=40-59%)	4 (4=60-79%)	5 (5=80-100%)	4 (4=60-79%)	1 (1=0-19%)	1 (1=0-19%)	3 (3=40-59%)	3 (3=40-59%)	5 (5=80-100%)	5 (5=80-100%)	5 (5=80-100%)	5 (5=80-100%)
Cn1nnnc1NC(=O)c1ccccc1Cl [Compound 1.015]	4 (4=60-79%)	3 (3=40-59%)	4 (4=60-79%)	3 (3=40-59%)	1 (1=0-19%)	1 (1=0-19%)	4 (4=60-79%)	5 (5=80-100%)												
CCCn1nnnc1NC(=O)c1cccc(Cl)c1Cl [Compound 1.016]	1 (1=0-19%)	2 (2=20-39%)	1 (1=0-19%)	1 (1=0-19%)	1 (1=0-19%)	1 (1=0-19%)	3 (3=40-59%)	4 (4=60-79%)												
COc1ccc2cc(C(=O)Nc3nnn[nH]3)c(C(F)(F)F)nc2n1 [Compound 2.001]	3 (3=40-59%)	1 (1=0-19%)	1 (1=0-19%)	1 (1=0-19%)	1 (1=0-19%)	1 (1=0-19%)	3 (3=40-59%)	1 (1=0-19%)												
Cc1nc2nc(C(F)(F)F)c(C(=O)Nc3nnnn3C)cc2cc1F [Compound 2.002]	5 (5=80-100%)	3 (3=40-59%)	2 (2=20-39%)	2 (2=20-39%)	4 (4=60-79%)	3 (3=40-59%)	5 (5=80-100%)	5 (5=80-100%)												
COc1cc2cc(C(=O)Nc3nnnn3C)c(C(F)(F)F)nc2nc1C [Compound 2.003]	5 (5=80-100%)	1 (1=0-19%)	2 (2=20-39%)	1 (1=0-19%)	4 (4=60-79%)	1 (1=0-19%)	5 (5=80-100%)	5 (5=80-100%)												
